Source: patent US11109593B2, “Isoxazolin-5-one derivative and herbicide containing same as active ingredient” (HOKKO CHEMICAL INDUSTRY CO., LTD., priority 2017, dated 2021)

What follows are molecules tested on Echinochloa crus-galli (assay: Test Example 1: herbicidal effect test by treatment of rice paddy soil (immediately after seeding)). Settings: 120 g/10a active ingredient, dry weight vs untreated area, 14 days after treatment.
Assay type: in vivo
Summary of the method: (§1)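 Paddy soil in pots with compound fertilizer, puddled; 30 seeds per species sown at 0–1 cm, flooded ~3 cm, greenhouse. Water-diluted emulsions dropped onto water immediately after seeding at 120 g active ingredient per 10 ares, duplicate. Herbicidal rate (%) from plant dry weight versus untreated, 14 days after treatment.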
With Cc1c(Cc2ccccc2N(S(=O)(=O)C(F)(F)F)S(=O)(=O)C(F)(F)F)c(=O)on1CCCl [Compound 1-983] the “Herbicidal rate (%) Echinochloa crus-galli” value was 70%.
With Cc1c(Cc2cc(F)ccc2N(S(=O)(=O)C(F)(F)F)S(=O)(=O)C(F)(F)F)c(=O)on1Cc1ccccc1 [Compound 1-32] the “Herbicidal rate (%) Echinochloa crus-galli” value was 80%.
For CCCOC(=O)N(c1ccccc1Cc1c(C)n(C(C)CC)oc1=O)S(=O)(=O)C(F)(F)F (stereo not drawn) [Compound 1-632], the “Herbicidal rate (%) Echinochloa crus-galli” value was 90%.

Each molecule was assayed on Scirpus juncoides in the same assay as above. Settings: 120 g/10a active ingredient, dry weight vs untreated area, 14 days after treatment.
Assay type: in vivo
Summary of the method: as §1
In the case of Cc1c(Cc2ccccc2N(S(=O)(=O)C(F)(F)F)S(=O)(=O)C(F)(F)F)c(=O)on1CCCl [Compound 1-983], the “Herbicidal rate (%) Scirpus juncoides” value is reported as 90%.
In the case of Cc1c(Cc2cc(F)ccc2N(S(=O)(=O)C(F)(F)F)S(=O)(=O)C(F)(F)F)c(=O)on1Cc1ccccc1 [Compound 1-32], the “Herbicidal rate (%) Scirpus juncoides” value is reported as 90%.
For CCCOC(=O)N(c1ccccc1Cc1c(C)n(C(C)CC)oc1=O)S(=O)(=O)C(F)(F)F (stereo not drawn) [Compound 1-632], the “Herbicidal rate (%) Scirpus juncoides” value was 90%.

Each molecule was assayed on broad leaf weeds (Lindernia pyxidaria and Monochoria vaginalis) in the same assay as above. Settings: Lindernia pyxidaria, 120 g/10a active ingredient, dry weight vs untreated area, 14 days after treatment.
Assay type: in vivo
Summary of the method: as §1
With Cc1c(Cc2ccccc2N(S(=O)(=O)C(F)(F)F)S(=O)(=O)C(F)(F)F)c(=O)on1CCCl [Compound 1-983] the “Herbicidal rate (%) Lindernia pyxidaria” value was 90%.
With Cc1c(Cc2cc(F)ccc2N(S(=O)(=O)C(F)(F)F)S(=O)(=O)C(F)(F)F)c(=O)on1Cc1ccccc1 [Compound 1-32] the “Herbicidal rate (%) Lindernia pyxidaria” value was 80%.
CCCOC(=O)N(c1ccccc1Cc1c(C)n(C(C)CC)oc1=O)S(=O)(=O)C(F)(F)F (stereo not drawn) [Compound 1-632] was tested, and the “Herbicidal rate (%) Lindernia pyxidaria” value was 90%.

Same assay, conditions: Monochoria vaginalis, 120 g/10a active ingredient, dry weight vs untreated area, 14 days after treatment
For Cc1c(Cc2ccccc2N(S(=O)(=O)C(F)(F)F)S(=O)(=O)C(F)(F)F)c(=O)on1CCCl [Compound 1-983], the “Herbicidal rate (%) Monochoria vaginalis” value was 90%.
For Cc1c(Cc2cc(F)ccc2N(S(=O)(=O)C(F)(F)F)S(=O)(=O)C(F)(F)F)c(=O)on1Cc1ccccc1 [Compound 1-32], the “Herbicidal rate (%) Monochoria vaginalis” value was 90%.
With CCCOC(=O)N(c1ccccc1Cc1c(C)n(C(C)CC)oc1=O)S(=O)(=O)C(F)(F)F (stereo not drawn) [Compound 1-632] the “Herbicidal rate (%) Monochoria vaginalis” value was 90%.

The molecules below were run on Echinochloa crus-galli (assay: Test Example 2: herbicidal effect test by treatment during growing period in paddy rice cultivation (seven days after seeding)). Settings: 120 g/10a active ingredient, assessed 14 days after treatment, dry weight vs untreated area.
Assay type: in vivo
Summary of the method: (§2)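 Paddy soil in Wagner pots with compound fertilizer, puddled; 30 seeds per species sown at 0–1 cm, flooded ~3 cm, greenhouse. Seven days after seeding, water-diluted emulsions were dropped into the water at 120 g active ingredient per 10 ares. Duplicate pots; herbicidal rate from dry weight versus untreated, 14 days after treatment.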
For Cc1c(Cc2ccccc2N(S(=O)(=O)C(F)(F)F)S(=O)(=O)C(F)(F)F)c(=O)on1CCCl [Compound 1-983], the “Herbicidal rate (%) Echinochloa crus-galli” value was 40%.
For Cc1c(Cc2cc(F)ccc2N(S(=O)(=O)C(F)(F)F)S(=O)(=O)C(F)(F)F)c(=O)on1Cc1ccccc1 [Compound 1-32], the “Herbicidal rate (%) Echinochloa crus-galli” value was 90%.
CCCOC(=O)N(c1ccccc1Cc1c(C)n(C(C)CC)oc1=O)S(=O)(=O)C(F)(F)F (stereo not drawn) [Compound 1-632] was tested, and the “Herbicidal rate (%) Echinochloa crus-galli” value was 90%.

Each molecule was assayed on Scirpus juncoides in the same assay as above. Settings: 120 g/10a active ingredient, assessed 14 days after treatment, dry weight vs untreated area.
Assay type: in vivo
Summary of the method: as §2
For Cc1c(Cc2ccccc2N(S(=O)(=O)C(F)(F)F)S(=O)(=O)C(F)(F)F)c(=O)on1CCCl [Compound 1-983], the “Herbicidal rate (%) Scirpus juncoides” value was 80%.
With Cc1c(Cc2cc(F)ccc2N(S(=O)(=O)C(F)(F)F)S(=O)(=O)C(F)(F)F)c(=O)on1Cc1ccccc1 [Compound 1-32] the “Herbicidal rate (%) Scirpus juncoides” value was 90%.
For CCCOC(=O)N(c1ccccc1Cc1c(C)n(C(C)CC)oc1=O)S(=O)(=O)C(F)(F)F (stereo not drawn) [Compound 1-632], the “Herbicidal rate (%) Scirpus juncoides” value was 90%.

The molecules below were run on broad leaf weeds (Lindernia pyxidaria and Monochoria vaginalis) in the same assay as above. Settings: Lindernia pyxidaria, 120 g/10a active ingredient, assessed 14 days after treatment, dry weight vs untreated area.
Assay type: in vivo
Summary of the method: as §2
In the case of Cc1c(Cc2ccccc2N(S(=O)(=O)C(F)(F)F)S(=O)(=O)C(F)(F)F)c(=O)on1CCCl [Compound 1-983], the “Herbicidal rate (%) Lindernia pyxidaria” value is reported as 80%.
Cc1c(Cc2cc(F)ccc2N(S(=O)(=O)C(F)(F)F)S(=O)(=O)C(F)(F)F)c(=O)on1Cc1ccccc1 [Compound 1-32] was tested, and the “Herbicidal rate (%) Lindernia pyxidaria” value was 80%.
In the case of CCCOC(=O)N(c1ccccc1Cc1c(C)n(C(C)CC)oc1=O)S(=O)(=O)C(F)(F)F (stereo not drawn) [Compound 1-632], the “Herbicidal rate (%) Lindernia pyxidaria” value is reported as 90%.

Same assay, conditions: Monochoria vaginalis, 120 g/10a active ingredient, assessed 14 days after treatment, dry weight vs untreated area
In the case of Cc1c(Cc2ccccc2N(S(=O)(=O)C(F)(F)F)S(=O)(=O)C(F)(F)F)c(=O)on1CCCl [Compound 1-983], the “Herbicidal rate (%) Monochoria vaginalis” value is reported as 80%.
In the case of Cc1c(Cc2cc(F)ccc2N(S(=O)(=O)C(F)(F)F)S(=O)(=O)C(F)(F)F)c(=O)on1Cc1ccccc1 [Compound 1-32], the “Herbicidal rate (%) Monochoria vaginalis” value is reported as 90%.
For CCCOC(=O)N(c1ccccc1Cc1c(C)n(C(C)CC)oc1=O)S(=O)(=O)C(F)(F)F (stereo not drawn) [Compound 1-632], the “Herbicidal rate (%) Monochoria vaginalis” value was 90%.

Each molecule was assayed on Amaranthus viridis (assay: Test Example 4: herbicidal effect test by treatment of leave and stem in dry field farming (seven days after seeding)). Settings: 120 g/10a active ingredient; emulsion sprayed seven days after seeding; evaluated 14 days after treatment.
Assay type: in vivo
Procedure: (§3) This test was conducted in a double system per one agent solution concentration area, and the herbicidal rates (%) were determined by the following equation (Math. 1) on 14 days after the treatment with the agents. Herbicidal Rate (%)={1-(Average Dry Weight (g) of Plant of Treated Area)/(Average Dry Weight (g) of Plant of Untreated Area)}×100 [Math. 1]
(§4) Herbicidal Effect Test by Treatment of Leave and Stem in Dry Field Farming
(§5) Pots with a size of 36 cm^2 were filled with a dry field farming soil (alluvium). The soil of the top layer of 1 cm and seeds of weeds, namely southern crabgrass, Echinochloa crus-galli, Chenopodium album and Amaranthus viridis, 20 seeds each, were evenly mixed, and the top layer was gently pressed. Emulsions prepared using the compounds in Table 6 below according to Formulation Example 5 were diluted with water seven days after seeding, and the water-diluted agent solutions were sprayed to the soil surfaces at a ratio of 100 liters per 10 ares. The converted amount of the applied active ingredient corresponded to 120 g per 10 ares. The herbicidal effects were evaluated by the same standard as that in Test Example 1 on 14 days after the treatment with the agents. […] The compound numbers in Table 6 are the same as those in Table 1 and Table 2 above.
In the case of Cc1c(Cc2ccccc2N(S(=O)(=O)C(F)(F)F)S(=O)(=O)C(F)(F)F)c(=O)on1CCCl [Compound 1-983], the “herbicidal effect (herbicidal rate), Amaranthus viridis” value (“herbicidal effect … Amaranthus viridis” for short) is reported as 40%.
With Cc1c(Cc2cc(F)ccc2N(S(=O)(=O)C(F)(F)F)S(=O)(=O)C(F)(F)F)c(=O)on1Cc1ccccc1 [Compound 1-32] the “herbicidal effect … Amaranthus viridis” value was 40%.
CCCOC(=O)N(c1ccccc1Cc1c(C)n(C(C)CC)oc1=O)S(=O)(=O)C(F)(F)F (stereo not drawn) [Compound 1-632] was tested, and the “herbicidal effect … Amaranthus viridis” value was 40%.

What follows are molecules tested on Chenopodium album in the same assay as above. Settings: 120 g/10a active ingredient; emulsion sprayed seven days after seeding; evaluated 14 days after treatment.
Assay type: in vivo
Procedure: as §3, §4, §5
For Cc1c(Cc2ccccc2N(S(=O)(=O)C(F)(F)F)S(=O)(=O)C(F)(F)F)c(=O)on1CCCl [Compound 1-983], the “herbicidal effect (herbicidal rate), Chenopodium album” value (“herbicidal effect … Chenopodium album” for short) was 0%.
With Cc1c(Cc2cc(F)ccc2N(S(=O)(=O)C(F)(F)F)S(=O)(=O)C(F)(F)F)c(=O)on1Cc1ccccc1 [Compound 1-32] the “herbicidal effect … Chenopodium album” value was 60%.
In the case of CCCOC(=O)N(c1ccccc1Cc1c(C)n(C(C)CC)oc1=O)S(=O)(=O)C(F)(F)F (stereo not drawn) [Compound 1-632], the “herbicidal effect … Chenopodium album” value is reported as 40%.

Each molecule was assayed on Echinochloa crus-galli in the same assay as above. Settings: 120 g/10a active ingredient; emulsion sprayed seven days after seeding; evaluated 14 days after treatment.
Assay type: in vivo
Procedure: as §3, §4, §5
For Cc1c(Cc2ccccc2N(S(=O)(=O)C(F)(F)F)S(=O)(=O)C(F)(F)F)c(=O)on1CCCl [Compound 1-983], the “herbicidal effect (herbicidal rate), Echinochloa crus-galli” value was 60%.
For Cc1c(Cc2cc(F)ccc2N(S(=O)(=O)C(F)(F)F)S(=O)(=O)C(F)(F)F)c(=O)on1Cc1ccccc1 [Compound 1-32], the “herbicidal effect (herbicidal rate), Echinochloa crus-galli” value was 0%.
CCCOC(=O)N(c1ccccc1Cc1c(C)n(C(C)CC)oc1=O)S(=O)(=O)C(F)(F)F (stereo not drawn) [Compound 1-632] was tested, and the “herbicidal effect (herbicidal rate), Echinochloa crus-galli” value was 90%.

Each molecule was assayed on southern crabgrass in the same assay as above. Settings: 120 g/10a active ingredient; emulsion sprayed seven days after seeding; evaluated 14 days after treatment.
Assay type: in vivo
Procedure: as §3, §4, §5
For Cc1c(Cc2ccccc2N(S(=O)(=O)C(F)(F)F)S(=O)(=O)C(F)(F)F)c(=O)on1CCCl [Compound 1-983], the “herbicidal effect (herbicidal rate), southern crabgrass” value (“herbicidal effect … southern crabgrass” below) was 40%.
In the case of Cc1c(Cc2cc(F)ccc2N(S(=O)(=O)C(F)(F)F)S(=O)(=O)C(F)(F)F)c(=O)on1Cc1ccccc1 [Compound 1-32], the “herbicidal effect … southern crabgrass” value is reported as 40%.
With CCCOC(=O)N(c1ccccc1Cc1c(C)n(C(C)CC)oc1=O)S(=O)(=O)C(F)(F)F (stereo not drawn) [Compound 1-632] the “herbicidal effect … southern crabgrass” value was 90%.
